Measured values published in PMC4450258 (Molecular neurobiology, 2014).

Biological target: T1, Sterol carrier protein 2 (SCP-2) (Homo sapiens, UniProt P22307)
T1 sequence (P22307 425-547): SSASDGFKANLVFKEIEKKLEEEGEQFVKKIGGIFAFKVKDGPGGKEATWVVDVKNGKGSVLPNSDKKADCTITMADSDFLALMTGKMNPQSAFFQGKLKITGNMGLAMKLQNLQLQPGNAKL
Type: biochemical

Structure (SMILES): CCCCC/C=C\C/C=C\C/C=C\C/C=C\CCCC(=O)NCCO [AEA, N-arachidonylethanolamine]
- inhibition of recombinant SCP-2-mediated [14C]cholesterol transfer from SUVs to: ~ 50 µM
